Results: patent US10918742B2, “Iodine-based particles” (Nanoprobes, Inc., priority 2016, dated 2021)

Legend:
[1] = mice, acute dose; cited from earlier work
[2] = microCT comparison with commercially available agent (kidney, lung); format: in vivo, mouse
Experimental: A mouse was injected with a standard iodine contrast agent at an effective dose of 2.5 g iodine/kg.
A mouse was injected with a standard iodine contrast agent at an effective dose of 1.75 g iodine/kg.

CC(=O)N(CC(O)CO)c1c(I)c(C(=O)NCC(O)CO)c(I)c(C(=O)NCC(O)CO)c1I (stereo not drawn) [Iohexol, 5-(N-2,3-Dihydroxypropylacetamido)-2,4,6-triiodo-N,N′-bis(2,3-dihydroxypropyl)isophthalamide]
intravenous LD50 [1]: 24.2 g iodine/kg | microCT of lung region ([2]; 30 minutes after injection, 1.75 g iodine/kg): no clear visualization of any vasculature | microCT of kidney region ([2]; two minutes after injection, Example 1 at 1.75 g iodine/kg, standard agent at 2.5 g iodine/kg): the iodine has rapidly entered the kidneys and is being quickly removed from the blood
